What was measured:
SH-SY5Y cells [1] = test: Cholesterol leakage from U18666A-treated cells; type: cell-based, human; settings: 1.0, 10.0 and 20.0 mM, 2 hours, 37° C., after U18666A 7.5 μM
Description: SH-SY5Y cells (1.0×10^5 cells), which are human neuroblasts, were seeded in a 24-well plate, incubated at 37° C. for 24 hours, then, washed with PBS, and a medium supplemented with U18666A (7.5 μM) was added, and it was incubated for an additional 24 hours. Then, washed with PBS, and 150 μL of a medium (HBSS, FBS (−)) containing HP-3-CyD (DS4.4) (1.0, 10.0 and 20.0 mM) or Lac-HP-β-CyD (DSL3.0) (1.0, 10.0 and 20.0 mM) was added. After incubating at 37° C. for 2 hours, the supernatant was collected and centrifuged (10,000). The cholesterol concentration and phospholipid concentration in the obtained supernatant were measured with cholesterol E-Test wako and phospholipid C-Test wako.

SH-SY5Y cells [2] = test: Intracellular accumulation of amyloid β; type: cell-based, human; settings: 1 mM, 24 hours, after U18666A 7.5 μM and HiLyte488-Aβ 250 nM
Description: Using SH-SY5Y cells, the amyloid β accumulation in the cells was measured. SH-SY5Y cells were seeded at 1.0×10^4 cells/glass dish and incubated at 37° C. for 24 hours. Then, washed with PBS, 150 μL of a medium containing U18666A (7.5 μM) and HiLyte488-Aβ (purchased from AnaSpec) (250 nM) was added and incubated at 37° C. for 24 hours. After washing with PBS, 200 μL of a medium containing HP-β-CyD (DS4.4.1 mM) or Lac-HP-β-CyD (DSL3.0, 1 mM) was added, and the mixture was incubated at 37° C. for 24 hours. After washing with PBS, 200 μL of a medium supplemented with Lysostacker (registered trademark) (final concentration: 100 nM) was added. After incubating for 30 minutes, it was fixed with 4% paraformaldehyde and the FIlipin solution was added.

[3] = Organ distribution of fluorescently labeled Lac-HP-β-CyD after intravenous injection (IVIS); type: in vivo, BALB/c mouse; settings: HiLyte-labeled, 10 mg/kg intravenous, BALB/c mice, 10 minutes
Description: BALB/c mice (8 weeks old, male, 20 g) were intravenously injected with HiLyte-HP-β-CyD (DS4.4) or HiLyte-Lac-HP-β-CyD (DSL3.0) at a dose of 10 mg/kg. After 10 minutes, the mice were euthanized, perfused with PBS and each organ was collected. Each organ was observed by IVIS.

hCMEC/D3 cells = test: Uptake of HiLyte-labeled Lac-HP-β-CyD into brain capillary endothelial cells (confocal microscope); type: cell-based, human; settings: 1 mM, 1 hour, 37° C.
Description: Lac-HP-β-CyD (DSL3.0) and the control HP-β-CyD […] were labeled with HiLyte fluorescent dye according to the manufacturer's manual. The following experiments were carried out using these.
Using hCMEC/D3 cells, which are human brain capillary endothelial cells, the uptake of Lac-HP-β-CyD into cells was confirmed. hCMEC/D3 cells were seeded at 1.0×10^4 cells/glass dish and incubated at 37° C. for 24 hours. Then, it was washed with PBS, and 150 μL of a medium containing HiLyte-HP-β-CyD (DS4.4, 1 mM) or HiLyte-Lac-HP-β-CyD (DSL3.0, 1 mM) was added, and incubated at 37° C. for 1 hour. After washing with PBS, it was fixed with 4% paraformaldehyde.

SH-SY5Y cells [4] = test: Uptake into SH-SY5Y cells after permeation of the hCMEC/D3 monolayer; type: cell-based, human; settings: HiLyte-labeled, 1 mM on upper side, 60 minutes
Description: hCMEC/D3 cells were seeded in the upper component of a transwell at 2.0×10^5 cells/well, incubated at 37° C. for 5 days, then, the transepithelial electrical resistance (TEER) was measured. SH-SY5Y cells were seeded at 1.0×10^5 cells/well in a 6-well plate, which is a lower component, and incubated at 37° C. for 1 day. […] Over time (upper side 0, 60 minutes; lower side 0, 5, 15, 30, and 60 minutes), the medium was sampled, the fluorescence intensity was measured using I-control (M1000) (TECAN), and the permeation amount was measured. Similar to Example 4, the permeation coefficient Papp (cm/sec) was calculated as follows.

cholesterol leakage into supernatant (SH-SY5Y cells [1]): less cholesterol leakage than HP-β-CyD
Substance: lactose-modified hydroxypropyl-β-cyclodextrin [Lac-HP-β-CyD]
Aβ clearance / intracellular amyloid β accumulation (SH-SY5Y cells [2]): normalized the Aβ clearance by reducing the amount of cholesterol in cells
penetration to the brain (fluorescence intensity of organ) [3]: significantly penetrated to the brain as compared with HP-β-CyD
uptake into cells (hCMEC/D3 cells): significantly taken up into the cells as compared with HP-β-CyD
uptake into SH-SY5Y cells after BBB permeation (SH-SY5Y cells [4]): significantly taken up into SH-SY5Y cells after BBB permeation as compared with HP-β-CyD

Source: patent US12246071B2, “Brain-penetrating ligand and drug carrier” (priority 2018, dated 2025)
